Measured values reported in publication PMC6104039 (Nature Communications, 2018).
Values joined by “and” are separate entries in the source; they are usually repeats but may differ in a detail not shown here. Equal entries are not always repeated.

System: liver
Experiment: Lipidomic profiling of liver
Assay type: in vivo, mice
Settings: for Ceramide 18:1/16:0 content of liver / Ceramide 18:1/18:0 content of liver / Ceramide 18:1/20:0 content of liver / Ceramide 18:1/22:0 content of liver / Ceramide 18:1/22:1 content of liver / Ceramide 18:1/24:0 content of liver / Ceramide 18:1/24:1 content of liver / SM 34:1 content of liver / SM 36:1 content of liver / SM 38:1 content of liver / SM 40:1 content of liver / SM 40:2 content of liver / SM 42:1 content of liver / SM 42:2 content of liver / SM 42:3 content of liver: individual mice; for Ceramide 18:1/16:0 content of liver / Ceramide 18:1/18:0 content of liver / Ceramide 18:1/20:0 content of liver / Ceramide 18:1/22:0 content of liver / Ceramide 18:1/22:1 content of liver / Ceramide 18:1/24:0 content of liver / Ceramide 18:1/24:1 content of liver: raw data Fig 3j; for SM 34:1 content of liver / SM 36:1 content of liver / SM 38:1 content of liver / SM 40:1 content of liver / SM 40:2 content of liver / SM 42:1 content of liver / SM 42:2 content of liver / SM 42:3 content of liver: raw data Fig 3k
Description: Male C57BL6/J mice were obtained from the Animal Resources Centre in Perth (WA, Australia). Mice were housed at 22 ± 1 °C with a controlled 12:12 h light-dark cycle and had ad libitum access to water and either chow (8% calories from fat) or HFD (45% calories from fat)[66] for 4–6 weeks. […] Treatment was commenced at the same time as mice were randomised to dietary groups. The experiments were approved by the UNSW animal care and ethics committee (ACEC 15/48B), and followed guidelines issued by the National Health and Medical Research Council of Australia.
Lipids were extracted from frozen tissue samples or cells using a two-phase procedure with methyl-tert-butyl ether (MTBE)/methanol/water (10:3:2.5, v/v/v)[67]. Frozen tissue samples (~20 mg) were homogenized in 0.2 mL methanol containing 0.01% butylated hydroxytoluene (BHT), using a Precellys 24 homogenizer and Cryolys cooling unit (Bertin Technologies) with CK14 (1.4-mm ceramic) beads. The homogenates were spiked with an internal standard mixture comprising 5 nmole 19:0/19:0 phosphatidylcholine and 2 nmole each of 17:0/17:0 phosphatidylethanolamine, 17:0/17:0 phosphatidylserine, 17:0/17:0 d5-diacylglycerol, 17:0/17:0 phosphatidylglycerol, 14:0/14:0/14:0/14:0 cardiolipin, 18:1/12:0 SM, 18:1/17:0 ceramide, 18:1/12:0 glucosylceramide, 18:1/12:0 lactosylceramide, 18:1/12:0 sulfatide (all from Avanti Polar Lipids, USA), and 17:0/17:0/17:0 TAG (Cayman Chemical, USA), then transferred to 10 mL screw cap glass tubes. The homogenization tubes containing beads were then washed with another 0.3 mL methanol, and this wash was combined with the first methanol extract, after which 1.7 mL MTBE was added and the samples were sonicated in an ice-cold sonicating water bath (Thermoline Scientific, Australia) for 30 min. Phase separation was induced by addition of 417 µL of mass spectrometry-grade water followed by vortexing and centrifugation at 1000 × g for 10 min. The upper organic phase was collected into 5 mL glass tubes. The lower phase was re-extracted by adding 1 mL MTBE, 300 μL methanol, and 250 μL water. The organic phases were combined in the 5 mL glass tubes and dried under vacuum in a Savant SC210 SpeedVac (Thermo Scientific), then reconstituted in 500 μL methanol and stored at −20 °C until analysis.
Lipidomic profiling was performed on a QExactive Plus mass spectrometer with heated electrospray ionization (HESI) probe and a Dionex UltiMate 2000 LC pump (Thermo Fisher Scientific). Extracts were resolved on a 2.1 × 100 mm Waters Acquity C18 UPLC column (1.7 µm […]), using a binary gradient in which mobile phase A consisted of acetonitrile:water (60:40), 10 mM ammonium formate, 0.1% formic acid; and mobile phase B was isopropanol:acetonitrile (90:10), 10 mM ammonium formate, 0.1% formic acid[68]. The flow rate was 260 µL/min and column oven 55 °C. Data was acquired in full scan/data-dependent MS^2 mode (full scan resolution 70,000 FWHM, scan range 400–1200 m/z). The ten most abundant ions in each cycle were subjected to MS^2 using an isolation window of 1.4 m/z, collision energy 30 eV, resolution 17,500, maximum integration time 110 ms and dynamic exclusion window 10 s. An exclusion list of background ions was used based on a solvent blank. LipidSearch v4.1.30 software (ThermoFisher Scientific) was used for chromatogram alignment, peak identification and integration. Each lipid peak was manually verified for column elution time and characteristic fragment ions. Data were then exported to an Excel spreadsheet for normalisation of each lipid to its class-specific internal standard, and lipid concentrations were calculated relative to the internal standard.
Data were log transformed, then subjected to two-tailed t-tests adjusted for multiple comparisons using GraphPad PRISM (Benjamini, Krieger and Yekutieli correction, Q = 1%).

**Q.** Which results are given for `C[C@@](N)(CO)CCc1ccc(OCc2ccc(Cl)c(Cl)c2)cc1` [P053, (S)-2-amino-4-(4-(3,4-dichlorobenzyloxy)phenyl)-2-methylbutan-1-ol]?
**A.** Ceramide 18:1/16:0 content of liver (Chow + P053): 0.263 and 0.826 and 0.657 and 1.600 and 0.958 and 0.311 and 0.952 and 1.950 and 1.430 and 1.980; Ceramide 18:1/18:0 content of liver (Chow + P053): 0.468 and 0.536 and 0.500 and 0.564 and 0.490 and 0.488 and 0.800 and 0.676 and 0.526 and 0.572; Ceramide 18:1/20:0 content of liver (Chow + P053): 0.373 and 0.356 and 0.495 and 0.460 and 0.417 and 0.442 and 0.880 and 0.398 and 0.505 and 0.396; Ceramide 18:1/22:0 content of liver (Chow + P053): 3.920 and 1.760 and 3.420 and 5.450 and 4.500 and 5.040 and 3.220 and 5.390 and 4.280 and 5.730; Ceramide 18:1/22:1 content of liver (Chow + P053): 0.723 and 0.782 and 0.523 and 0.904 and 0.601 and 0.629 and 0.682 and 0.527 and 0.912 and 0.679; Ceramide 18:1/24:0 content of liver (Chow + P053): 3.590 and 2.080 and 4.670 and 4.260 and 5.640 and 4.820 and 3.660 and 3.820 and 3.320 and 4.860; Ceramide 18:1/24:1 content of liver (Chow + P053): 6.030 and 5.880 and 4.990 and 7.190 and 10.500 and 7.070 (2×) and 5.770 and 7.700 and 9.200; SM 34:1 content of liver (Chow + P053): 166.01 and 387.90 and 294.94 and 188.63 and 560.02 and 385.72 and 339.20 and 244.42 and 416.06 and 213.21; SM 36:1 content of liver (Chow + P053): 17.50 and 23.09 and 28.72 and 28.48 and 31.35 and 32.32 and 36.07 and 17.60 and 29.53 and 28.44; SM 38:1 content of liver (Chow + P053): 20.23 and 36.64 and 18.78 and 30.07 and 30.24 and 24.30 and 33.98 and 28.61 and 27.66 and 25.39; SM 40:1 content of liver (Chow + P053): 190.28 and 236.56 and 278.04 and 382.12 and 238.06 and 386.25 and 326.88 and 330.28 and 377.35 and 269.17; SM 40:2 content of liver (Chow + P053): 31.01 and 36.97 and 24.71 and 36.72 and 38.54 and 35.80 and 48.00 and 37.75 and 38.85 and 32.99; SM 42:1 content of liver (Chow + P053): 17.79 and 25.33 and 19.04 and 17.96 and 14.02 and 33.47 and 24.89 and 25.97 and 20.36 and 14.52; SM 42:2 content of liver (Chow + P053): 265.43 and 723.53 and 60.59 and 173.83 and 445.88 and 448.77 and 411.18 and 225.87 and 409.74 and 354.33; SM 42:3 content of liver (Chow + P053): 12.99 and 95.71 and 34.45 and 42.03 and 46.27 and 40.91 and 37.02 and 32.31 and 26.34 and 23.58; Ceramide 18:1/16:0 content of liver (HFD + P053): 1.320 and 0.972 and 0.437 and 1.310 and 0.312 and 0.006 and 2.340 and 2.140 and 1.290 and 1.500; Ceramide 18:1/18:0 content of liver (HFD + P053): 0.435 and 0.273 and 0.474 and 0.459 and 0.643 and 0.366 and 0.820 and 0.267 and 0.974 and 0.526; Ceramide 18:1/20:0 content of liver (HFD + P053): 0.582 and 0.659 and 1.010 and 1.000 and 0.971 and 0.637 and 0.716 and 0.382 and 1.670 and 1.340; Ceramide 18:1/22:0 content of liver (HFD + P053): 5.900 and 4.030 and 8.630 and 5.080 and 3.630 and 4.930 and 8.270 and 6.990 and 8.250 and 9.280; Ceramide 18:1/22:1 content of liver (HFD + P053): 0.333 and 0.644 and 0.674 and 0.925 and 0.703 and 0.380 and 0.572 and 0.319 and 0.786 and 0.444; Ceramide 18:1/24:0 content of liver (HFD + P053): 5.470 and 0.260 and 4.890 and 2.480 and 1.780 and 2.580 and 4.330 and 4.610 and 7.520 and 5.820; Ceramide 18:1/24:1 content of liver (HFD + P053): 6.580 and 2.880 and 4.960 and 4.030 and 5.720 and 2.860 and 6.330 and 6.390 and 11.600 and 5.550; SM 34:1 content of liver (HFD + P053): 482.51 and 71.17 and 450.03 and 341.58 and 602.82 and 140.43 and 342.86 and 326.17 and 1409.61 and 780.28; SM 36:1 content of liver (HFD + P053): 53.21 and 102.16 and 78.05 and 79.54 and 65.66 and 116.67 and 78.22 and 28.49 and 259.61 and 108.18; SM 38:1 content of liver (HFD + P053): 71.47 and 53.18 and 46.58 and 23.22 and 42.32 and 78.12 and 59.56 and 48.00 and 174.38 and 50.63; SM 40:1 content of liver (HFD + P053): 580.97 and 447.50 and 671.33 and 376.94 and 209.01 and 396.09 and 367.60 and 345.17 and 872.91 and 711.11; SM 40:2 content of liver (HFD + P053): 46.18 and 47.77 and 24.90 and 19.09 and 21.42 and 31.04 and 27.87 and 23.30 and 72.99 and 30.73; SM 42:1 content of liver (HFD + P053): 18.56 and 11.22 and 9.61 and 4.95 and 13.26 and 9.80 and 20.61 and 8.52 and 19.00 and 16.17; SM 42:2 content of liver (HFD + P053): 531.45 and 245.25 and 263.63 and 192.83 and 186.28 and 157.29 and 222.03 and 342.17 and 572.48 and 255.77; SM 42:3 content of liver (HFD + P053): 38.83 and 26.76 and 24.26 and 23.94 and 22.31 and 29.44 and 41.75 and 49.23 and 92.66 and 37.38; 265 lipids measured in liver (chow or HFD): none was significantly affected
